Source: publication PMC8344761 (Journal of Enzyme Inhibition and Medicinal Chemistry, 2021)
Like-named read-outs stand apart in the source and are kept apart here.

Assays:
A-Raf = molecular target: T1, A-Raf (Homo sapiens, UniProt P10398); assay: Raf kinase assay (Kinase HotSpot, Reaction Biology Corp.); assay type: biochemical; settings: for inhibition at 1 µM: fixed concentration 1 μM, mean of two independent experiments
T1 sequence (P10398 1-606): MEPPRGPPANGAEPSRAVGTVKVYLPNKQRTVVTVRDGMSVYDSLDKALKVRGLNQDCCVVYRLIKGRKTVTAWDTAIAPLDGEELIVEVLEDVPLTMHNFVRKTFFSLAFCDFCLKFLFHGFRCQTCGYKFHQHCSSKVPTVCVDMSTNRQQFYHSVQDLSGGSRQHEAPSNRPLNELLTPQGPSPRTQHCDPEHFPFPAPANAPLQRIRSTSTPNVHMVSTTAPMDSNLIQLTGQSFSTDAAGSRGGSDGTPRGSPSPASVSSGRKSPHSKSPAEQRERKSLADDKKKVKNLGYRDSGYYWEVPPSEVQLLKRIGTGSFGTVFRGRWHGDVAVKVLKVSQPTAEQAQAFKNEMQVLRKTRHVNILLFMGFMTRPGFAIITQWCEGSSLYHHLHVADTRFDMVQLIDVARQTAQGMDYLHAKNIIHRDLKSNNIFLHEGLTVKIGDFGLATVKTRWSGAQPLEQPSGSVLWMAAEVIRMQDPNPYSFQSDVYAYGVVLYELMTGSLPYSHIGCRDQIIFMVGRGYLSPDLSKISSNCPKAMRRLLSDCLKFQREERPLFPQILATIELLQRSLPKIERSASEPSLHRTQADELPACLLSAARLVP
Description: Compounds were delivered into each Raf reaction, followed ∼20 min later by addition of a mixture of ATP and [γ-^33P-ATP] (specific activity approx. 500 cpm/pmol, concentration as required) to a final concentration of 10 µM. […] Then, the reaction was spotted onto a P30 filtermat, and unbound phosphate was removed by washing three times for 5 min in 75 mM phosphoric acid and once in methanol prior to drying and scintillation counting. […] IC50 values and curve fits were obtained using Prism (GraphPad Software, La Jolla, CA).

B-Raf = B-Raf (Homo sapiens, UniProt P15056); assay: as above; assay type: biochemical; settings: for inhibition at 1 µM: fixed concentration 1 μM, mean of two independent experiments
Chain of B-Raf (P15056 whole entry): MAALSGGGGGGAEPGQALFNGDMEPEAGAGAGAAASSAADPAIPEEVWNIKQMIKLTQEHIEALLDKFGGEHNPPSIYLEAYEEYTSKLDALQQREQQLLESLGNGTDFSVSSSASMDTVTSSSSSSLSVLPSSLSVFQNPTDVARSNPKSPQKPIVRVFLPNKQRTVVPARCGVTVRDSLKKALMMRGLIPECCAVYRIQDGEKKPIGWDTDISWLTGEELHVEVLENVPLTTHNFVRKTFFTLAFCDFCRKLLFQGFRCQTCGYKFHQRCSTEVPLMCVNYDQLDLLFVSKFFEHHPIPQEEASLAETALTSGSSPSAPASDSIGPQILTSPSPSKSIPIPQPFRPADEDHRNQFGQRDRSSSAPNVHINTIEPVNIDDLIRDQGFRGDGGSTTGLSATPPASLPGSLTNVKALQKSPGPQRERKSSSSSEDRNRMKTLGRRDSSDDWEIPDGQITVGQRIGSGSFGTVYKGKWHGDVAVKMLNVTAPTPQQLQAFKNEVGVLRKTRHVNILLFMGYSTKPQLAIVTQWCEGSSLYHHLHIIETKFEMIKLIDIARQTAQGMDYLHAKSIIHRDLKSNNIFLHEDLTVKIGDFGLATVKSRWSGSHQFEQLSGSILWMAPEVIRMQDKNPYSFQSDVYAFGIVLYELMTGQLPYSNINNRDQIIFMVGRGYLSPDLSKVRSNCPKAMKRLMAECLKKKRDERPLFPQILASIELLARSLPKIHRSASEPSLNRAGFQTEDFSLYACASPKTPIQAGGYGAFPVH
Description: (§1) Compounds were delivered into each Raf reaction, followed ∼20 min later by addition of a mixture of ATP and [γ-^33P-ATP] (specific activity approx. 500 cpm/pmol, concentration as required) to a final concentration of 10 µM. After incubation for 40 min at 25 °C, the reaction was stopped by the addition of a 3% phosphoric acid solution. Then, the reaction was spotted onto a P30 filtermat, and unbound phosphate was removed by washing three times for 5 min in 75 mM phosphoric acid and once in methanol prior to drying and scintillation counting. […] IC50 values and curve fits were obtained using Prism (GraphPad Software, La Jolla, CA).

B-Raf (V600E) = B-Raf (V600E) (Homo sapiens, UniProt P15056, V600E); assay: as above; assay type: biochemical; settings: for inhibition at 1 µM: fixed concentration 1 μM, mean of two independent experiments, B-Raf (V599E)
Chain of B-Raf (V600E) (P15056 whole entry V600E): as the sequence (P15056 whole entry) above, with V600E counted along it
Description: as §1

C-Raf = C-Raf (Homo sapiens, UniProt P04049); assay: as above; assay type: biochemical; settings: for inhibition at 1 µM: read-out: Inhibition (%) C-Raf
Chain of C-Raf (P04049 whole entry): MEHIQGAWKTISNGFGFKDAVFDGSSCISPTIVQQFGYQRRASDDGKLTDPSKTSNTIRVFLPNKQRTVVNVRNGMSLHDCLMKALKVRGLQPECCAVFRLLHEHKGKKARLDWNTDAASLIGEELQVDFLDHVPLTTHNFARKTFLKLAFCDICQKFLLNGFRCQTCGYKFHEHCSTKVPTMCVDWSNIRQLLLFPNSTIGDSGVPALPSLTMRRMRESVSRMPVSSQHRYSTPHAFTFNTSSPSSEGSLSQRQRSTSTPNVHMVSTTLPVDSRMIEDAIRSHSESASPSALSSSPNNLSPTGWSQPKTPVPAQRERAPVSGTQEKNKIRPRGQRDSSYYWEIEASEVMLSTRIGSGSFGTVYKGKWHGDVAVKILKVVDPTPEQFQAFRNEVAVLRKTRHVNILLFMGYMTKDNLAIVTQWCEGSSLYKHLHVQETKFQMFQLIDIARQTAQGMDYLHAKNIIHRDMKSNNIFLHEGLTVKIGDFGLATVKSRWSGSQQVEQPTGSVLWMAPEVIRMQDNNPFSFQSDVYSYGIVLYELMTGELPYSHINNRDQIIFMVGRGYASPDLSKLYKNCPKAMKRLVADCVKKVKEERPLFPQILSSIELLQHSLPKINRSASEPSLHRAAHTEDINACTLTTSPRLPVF
Description: as §1

VEGFR-2 tyrosine kinase = molecular target: T2, VEGFR-2 tyrosine kinase (Homo sapiens, UniProt P35968); assay: VEGFR-2 (KDR) kinase assay (ADP-glow); assay type: biochemical; settings: fixed concentration 1 µM; read-out: inhibitory activity against VEGFR-2 tyrosine kinase
T2 construct: purchased Promega
T2 sequence (P35968 20-1356): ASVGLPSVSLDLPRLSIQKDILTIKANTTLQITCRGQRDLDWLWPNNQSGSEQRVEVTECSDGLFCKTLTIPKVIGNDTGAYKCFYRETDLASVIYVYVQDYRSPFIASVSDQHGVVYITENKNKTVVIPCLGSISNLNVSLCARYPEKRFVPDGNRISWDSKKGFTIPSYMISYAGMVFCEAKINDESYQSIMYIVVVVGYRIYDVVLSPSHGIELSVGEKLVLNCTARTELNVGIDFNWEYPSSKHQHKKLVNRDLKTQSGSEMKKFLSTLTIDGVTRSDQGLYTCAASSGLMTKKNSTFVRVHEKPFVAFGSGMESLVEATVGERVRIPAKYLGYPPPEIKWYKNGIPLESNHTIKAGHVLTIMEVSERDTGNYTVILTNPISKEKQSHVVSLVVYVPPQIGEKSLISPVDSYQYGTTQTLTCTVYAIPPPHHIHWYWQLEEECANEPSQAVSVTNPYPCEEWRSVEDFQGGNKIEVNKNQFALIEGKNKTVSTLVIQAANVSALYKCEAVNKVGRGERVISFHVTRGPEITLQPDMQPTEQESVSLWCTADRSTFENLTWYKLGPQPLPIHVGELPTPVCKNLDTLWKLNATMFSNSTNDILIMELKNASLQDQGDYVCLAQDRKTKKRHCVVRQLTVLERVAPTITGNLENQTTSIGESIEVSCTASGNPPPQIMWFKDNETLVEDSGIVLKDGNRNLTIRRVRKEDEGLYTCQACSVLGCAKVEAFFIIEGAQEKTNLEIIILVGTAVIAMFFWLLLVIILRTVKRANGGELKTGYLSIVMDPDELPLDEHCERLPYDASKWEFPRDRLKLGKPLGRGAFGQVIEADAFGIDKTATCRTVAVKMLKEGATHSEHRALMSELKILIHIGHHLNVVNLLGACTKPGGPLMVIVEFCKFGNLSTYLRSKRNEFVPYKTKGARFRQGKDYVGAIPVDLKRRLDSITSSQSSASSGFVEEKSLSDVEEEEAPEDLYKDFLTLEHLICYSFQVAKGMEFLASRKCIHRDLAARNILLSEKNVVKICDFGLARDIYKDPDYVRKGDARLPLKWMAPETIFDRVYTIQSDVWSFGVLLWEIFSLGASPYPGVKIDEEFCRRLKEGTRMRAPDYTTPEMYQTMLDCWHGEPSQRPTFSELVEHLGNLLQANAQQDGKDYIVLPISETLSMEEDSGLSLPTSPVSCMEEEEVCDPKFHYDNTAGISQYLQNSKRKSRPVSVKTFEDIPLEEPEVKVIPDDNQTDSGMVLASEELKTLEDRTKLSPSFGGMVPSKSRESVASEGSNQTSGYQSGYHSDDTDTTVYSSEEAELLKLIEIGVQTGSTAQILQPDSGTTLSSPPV

Hep3B = assay: Cell proliferation assay (MTT); assay type: cell-based; settings: Homo sapiens, 48 h, mean ± SEM of three independent experiments, read-out: Cancer cell proliferation IC50 Hep3B
Description: (§2) Hepatocellular carcinoma cell lines (HepG2, Huh7), human pancreatic ductal epithelial cell line (H6c7), and normal human colon cell line (CCD841) were obtained from the American Type Culture Collection (ATCC) (Manassas, VA, USA). Cells were cultured in DMEM/High Glucose media (Hep3B, Huh7, CCD841) or MEM/EBSS media (HepG2) containing 10% FBS, 100 IU/ml of penicillin and 100 µg/ml of streptomycin. H6c7 cells were cultured in keratinocyte serum free media supplemented with epidermal growth factor and bovine pituitary extract. Cells were maintained in 5% CO2 humidified atmosphere at 37 °C.
(§3) Cells were seeded in a 96-well plate and allowed to adhere for 24 h. The cells were serum starved in 1% serum containing medium for 12 h, and then treated with drugs in 10% serum-containing medium. After incubation for 48 h, cell proliferation was measured using MTT assay. Optical density was measured at 540 nm using a Spectrostar Nano microplate reader (BMG LABTECH GmbH, Ortenberg, Germany).

HepG2 = assay: Cell proliferation assay (MTT); assay type: cell-based; settings: Homo sapiens, 48 h, mean ± SEM of three independent experiments, read-out: Cancer cell proliferation IC50 HepG2
Description: as §2, §3

Huh7 = assay: Cell proliferation assay (MTT); assay type: cell-based; settings: Homo sapiens, Huh-7, 48 h, mean ± SEM of three independent experiments, read-out: Cancer cell proliferation IC50 Huh7
Description: as §2, §3

[1] = Cytotoxicity assay (MTT), normal cells; assay type: cell-based, human; settings: human, mean ± SEM
Description: as §2
(§4) Cells were seeded in a 96-well plate and allowed to adhere for 24 h. Cells in low serum (1%)-containing medium were treated with drugs for 48 h. In case of H6c7 cells, cells in keratinocyte serum free media were treated with drugs for 48 h. Then, cell viability was measured using MTT assay. Optical density was measured at 540 nm using a Spectrostar Nano microplate reader (BMG LABTECH).

Hep3B cells = assay: Sphere formation assay; assay type: cell-based; settings: Homo sapiens, 48 h drug treatment, 13 days culture, read-out: % Inhibition of sphere forming Hep3B
Description: (§5) Sphere forming ability of Hep3B and Huh7 cells were examined after incubation with drugs for 48 h. Briefly, 3 × 10^3 cells which were pre-treated with or without drugs in prEGM media (Lonza, Basel, Switzerland) were seeded on an ultra-low adhering 24 well plate (Corning Incorporated Costar, Corning, NY). Twice a week, 500 µL of used medium was replaced with fresh prEGM media. At 13 days after plating, images of spheres were captured using Celloger Mini (Curiosis Inc., Seoul, South Korea). The number of spheroids over 50 µm in diameter was counted by using Image J software (National Institute of Health, Bethesda, MD).

Huh7 cells = assay: Sphere formation assay; assay type: cell-based; settings: Homo sapiens, Huh-7, 48 h drug treatment, 13 days culture, read-out: % Inhibition of sphere forming Huh7
Description: as §5

CCD841 = assay: Cytotoxicity assay (MTT), normal cells; assay type: cell-based, human; settings: normal colon epithelial cell line, 48 h, mean ± SEM
Description: as §2, §4

H6c7 = assay: Cytotoxicity assay (MTT), normal cells; assay type: cell-based, human; settings: normal pancreatic ductal epithelial cell line, 48 h, mean ± SEM
Description: as §2, §4

[2] = tested on: Huh7 cells xenografted onto CAM; assay: Huh7-xenografted CAM tumour model; assay type: in vivo, chick; settings: 10 µM final concentration on CAM; Huh7 xenograft
Description: Cancer cell xenograft onto chick chorioallantoic membrane (CAM), an in vivo tumour model, was used to evaluate anti-tumour efficacy of compounds. Fertilised chicken eggs purchased from Byeolbichon Farm (Gyeongbuk, South Korea) were incubated at 37 °C with 55% relative humidity. On day 9 of egg incubation (embryonic day 9, E9), a small hole was made in the shell over the air sac after the selection of bifurcated vessels. Another hole was made on the broadside using a needle by applying negative pressure from the wider part, creating false air sac. Using a grinding wheel (Dremel, Racine, WI), a small window (1 cm^2) was created in the eggshell above the false air sac. For generation of xenograft CAM tumour model, Huh7 cells (1.5 × 10^6 cells/CAM) were inoculated on the CAM with or without test drugs (10 µM final concentration). On day 13 of egg incubation (E13), tumour tissues attached to CAM were resected from the embryo and harvested. Photographs of tumour as well as blood vessel branches were taken using optical microscope (Olympus Corporation, Tokyo, Japan). Tumour tissues were weighted and the number of vessel branch points within the tumour region was counted.

[3] = fixed concentration 1 μM, mean of two independent experiments
[4] = CCD841 cells (normal colon epithelial cell line)
[5] = H6c7 cells (normal pancreatic ductal epithelial cell line)

Q: For `CNC(=O)c1cc(Oc2c(C)nc(NC(=O)Nc3cccc(C(F)(F)F)c3)c(C)c2C)ccn1` [Compound 6, N-Methyl-4-((2,4,5-trimethyl-6–(3-(3-(trifluoromethyl)phenyl)ureido)pyridin-3-yl)oxy)picolinamide], which inhibition at 1 µM (A-Raf) is on record?
A: The inhibition at 1 µM was 84.6%.

Q: And the IC50 (A-Raf; mean ± SD of two independent experiments, read-out: In vitro Raf kinase inhibition IC50 A-Raf)?
A: Its IC50 is 0.057 ± 0.0086 µM.

Q: What about the inhibition at 1 µM (B-Raf) of the same molecule?
A: The inhibition at 1 µM was 65%.

Q: What about the IC50 (B-Raf; mean ± SD of two independent experiments, read-out: In vitro Raf kinase inhibition IC50 B-Raf) of the same molecule?
A: Its IC50 is 0.216 ± 0.0436 µM.

Q: What about the inhibition at 1 µM (B-Raf (V600E)) of the same molecule?
A: The inhibition at 1 µM was 88.2%.

Q: What about the IC50 (B-Raf (V600E); mean ± SD of two independent experiments, read-out: In vitro Raf kinase inhibition IC50 B-Raf(V600E)) of the same molecule?
A: The IC50 was 0.07 ± 0.0004 µM.

Q: What about the inhibition at 1 µM (C-Raf; [3]) of the same molecule?
A: Its inhibition at 1 µM is 92.5%.

Q: What about the IC50 (C-Raf; mean ± SD of two independent experiments, read-out: In vitro Raf kinase inhibition IC50 C-Raf) of the same molecule?
A: Its IC50 is 0.022 ± 0.0008 µM.

Q: What about the inhibition at 1 µM (VEGFR-2 tyrosine kinase) of the same molecule?
A: Its inhibition at 1 µM is about -6%.

Q: What about the IC50 (Hep3B) of the same molecule?
A: Its IC50 is 6.49 ± 0.12 µM.

Q: What about the IC50 (HepG2) of the same molecule?
A: Its IC50 is 5.02 ± 0.06 µM.

Q: What about the IC50 (Huh7) of the same molecule?
A: Its IC50 is 4.77 ± 0.09 µM.

Q: And the CC50 at 48 h [1, 4]?
A: The CC50 at 48 h was over 10 µM.

Q: What about the CC50 at 48 h [1, 5] of the same molecule?
A: Its CC50 at 48 h is over 10 µM.

Q: And the inhibition at 1 µM (Hep3B cells)?
A: The inhibition at 1 µM was 38.3%.

Q: And the inhibition at 10 µM (Hep3B cells)?
A: Its inhibition at 10 µM is 55.6%.

Q: And the inhibition at 1 µM (Huh7 cells)?
A: The inhibition at 1 µM was 23.8%.

Q: What about the inhibition at 10 µM (Huh7 cells) of the same molecule?
A: The inhibition at 10 µM was 44.2%.

Q: What about the melting point of the same molecule?
A: The melting point was 244 °C.

Q: For `CNC(=O)c1cc(Oc2c(C)nc(NC(=O)Nc3ccc(Cl)c(C(F)(F)F)c3)nc2C)ccn1` [Compound 28, 4-((2-(3-(4-Chloro-3-(trifluoromethyl)phenyl)ureido)-4,6-dimethylpyrimidin-5-yl)oxy)-N-methylpicolinamide], which inhibition at 1 µM (A-Raf) is on record?
A: Its inhibition at 1 µM is 72.4%.

Q: And the inhibition at 1 µM (B-Raf)?
A: The inhibition at 1 µM was 48.5%.

Q: What about the inhibition at 1 µM (B-Raf (V600E)) of the same molecule?
A: Its inhibition at 1 µM is 75.2%.

Q: And the inhibition at 1 µM (C-Raf; [3])?
A: The inhibition at 1 µM was 91%.

Q: What about the melting point of the same molecule?
A: Its melting point is 251 °C.

Q: What does the source list for `CNC(=O)c1cc(Oc2ccc(NC(=O)Nc3ccc(Cl)c(C(F)(F)F)c3)cc2)ccn1` [Sorafenib, reference compound]?
A: inhibition at 1 µM (A-Raf): 93.7%; inhibition at 1 µM (C-Raf): 97.6%; IC50 (Hep3B): 1.22 ± 0.05 µM; IC50 (HepG2): 1.29 ± 0.02 µM; IC50 (Huh7): 1.17 ± 0.04 µM; CC50 at 48 h [1, 4]: ~4.1 µM; CC50 at 48 h [1, 5]: ~4.4 µM; CC50 (CCD841): 4.08 ± 0.58 µM; CC50 (H6c7): 4.36 ± 0.21 µM; inhibition at 1 µM (Hep3B cells): 43.6%; inhibition at 10 µM (Hep3B cells): 56.4%; inhibition at 1 µM (Huh7 cells): 59.7%; inhibition at 10 µM (Huh7 cells): 85.9%; inhibition of tumour-induced angiogenesis (new vessel branches) [2]: significantly blocked
